Source: ChEMBL document CHEMBL2375345, “New antiprotozoal agents: their synthesis and biological evaluations” (Bioorg Med Chem Lett, 2013)

Columns and labels:
[1] = Selectivity index, ratio of CC50 for human MRC5 cells to IC50 for amastigote form of Leishmania infantum MHOM/MA(BE)/67; format: functional
[2] = Selectivity index, ratio of CC50 for human MRC5 cells to IC50 for trypomastigote form of Trypanosoma brucei rhodesiense STIB900; format: functional
[3] = Selectivity index, ratio of CC50 for human MRC5 cells to IC50 for trypomastigote form of Trypanosoma brucei brucei 427; format: functional
[4] = Selectivity index, ratio of CC50 for human MRC5 cells to IC50 for epimastigote form of Trypanosoma cruzi Tulahuen 2; format: functional
[5] = Lipophilicity, log P of the compound; format: physicochemical; conditions: octanol/water
[6] = Cytotoxicity against human MRC5 cells assessed as cell viability after 7 days by Alamar blue assay; format: cell-based
[7] = system: Leishmania infantum; assay: Antiprotozoal activity against amastigote form of Leishmania infantum MHOM/MA(BE)/67 infected in mouse peritoneal macrophages assessed as reduction of intracellular parasite burden after 5 days by Giemsa staining method; format: functional, organism-based; conditions: MHOM/MA(BE)/67, 120 h
[8] = system: Trypanosoma cruzi; assay: Antiprotozoal activity against epimastigote form of Trypanosoma cruzi Tulahuen 2 assessed as parasite growth inhibition measured at day 5; format: functional, organism-based; conditions: Tulahuen 2, 120 h
[9] = system: Trypanosoma brucei brucei; assay: Antiprotozoal activity against trypomastigote form of Trypanosoma brucei brucei 427 assessed as parasite growth inhibition; format: functional, organism-based
[10] = system: Trypanosoma brucei rhodesiense; assay: Antiprotozoal activity against trypomastigote form of Trypanosoma brucei rhodesiense STIB900 assessed as parasite growth inhibition after 72 hrs by Alamar blue assay; format: functional, organism-based; conditions: STIB900, 72 h

| Compound | logP [5] | IC50 [7] | IC50 [8] | IC50 [9] | IC50 [10] | Ratio CC50/IC50 [1] | Ratio CC50/IC50 [2] | Ratio CC50/IC50 [3] | Ratio CC50/IC50 [4] | CC50 at 168 h [6] |
| --- | --- | --- | --- | --- | --- | --- | --- | --- | --- | --- |
| O/N=C1\c2ccccc2-c2c1c(N1CCN(c3ccccn3)CC1)nc1ccc(Br)cc21 | 6.4 | 9.51 µM | 7.01 µM | 8170 nM | 2610 nM | 6.73 | 24.52 | 7.34 | 9.13 | 64 µM |
| CC1(O)c2ccccc2-c2c1c(-n1ccnc1)nc1ccc(Br)cc21 (stereo not given) | 3.86 | 12.7 µM | 1.39 µM | 18800 nM | 5930 nM | 0.9 | 1.93 | 0.61 | 8.23 | 11.5 µM |
| CC(=O)OC1(C)c2ccccc2-c2c1c(-n1ccnc1)nc1ccc(Br)cc21 (stereo not given) | 4.09 | 21.1 µM | 0.93 µM | 29000 nM | 7110 nM | 1.52 | 4.53 | 1.11 | 34.65 | 32.2 µM |
| CCCCC(=O)OC1(C)c2ccccc2-c2c1c(-n1ccnc1)nc1ccc(Br)cc21 (stereo not given) | 5.58 | 5.66 µM | 1.46 µM | 8110 nM | 5810 nM | 3.84 | 3.74 | 2.68 | 14.91 | 21.8 µM |
| CC(C)CC(NC(=O)OCC1c2ccccc2-c2ccccc21)C(=O)O/N=C1\c2ccccc2-c2c1c(N1CCN(c3ccccn3)CC1)nc1ccc(Br)cc21 (stereo not given) | 8.3 | 3.17 µM | 7.52 µM | 7330 nM | 1520 nM | 4.28 | 8.94 | 1.85 | 1.8 | 13.6 µM |
| CC(C)(C)OC(=O)N1CCCC1C(=O)O/N=C1\c2ccccc2-c2c1c(-n1ccnc1)nc1ccc(Br)cc21 (stereo not given) |  | 12.7 µM | 7.38 µM | 7310 nM | 4330 nM | 0.63 | 1.85 | 1.09 | 1.08 | 8 µM |
| O=[N+]([O-])c1ccc2nc(Oc3ccc(F)cc3C(O)CN3CCCCC3)c(Cc3ccccc3)cc2c1 (stereo not given) |  | 2.16 µM | 2 µM | 2010 nM | 1220 nM | 1.29 | 8.8 | 4.31 | 2.2 |  |
| COc1cccc(N2CCN(CC(O)COC3(C)c4ccccc4-c4c3c(N3CCN(C(c5ccccc5)c5ccccc5)CC3)nc3ccc(Br)cc43)CC2)c1 (stereo not given) |  | 30.1 µM | 64 µM | 2030 nM | 860 nM | 2.04 | 71.44 | 30.26 | 0.96 | 61.4 µM |
| CC1(OCC2CO2)c2ccccc2-c2c1c(C(F)(F)F)nc1ccc(Br)cc21 (stereo not given) | 5.23 | 27.3 µM | 8.37 µM | 8570 nM | 5490 nM | 0.14 | 0.73 | 0.47 | 0.48 | 4 µM |
| COc1nc2ccc(Br)cc2c2c1C(C)(OCC(O)Cn1ccnc1)c1ccccc1-2 (stereo not given) | 3.68 | 6.01 µM | 2.16 µM | 2030 nM | 1170 nM | 1.33 | 6.83 | 3.94 | 3.7 | 8 µM |
| COc1nc2ccc(Br)cc2c2c1C(C)(OC(=O)N(C)C)c1ccccc1-2 (stereo not given) | 4.91 | 64 µM | 7.42 µM | 8230 nM | 5280 nM | 1 | 12.12 | 7.77 | 8.62 | 64 µM |

Continued by falling IC50 [7], values first:

| logP [5] | IC50 [7] | IC50 [8] | IC50 [9] | IC50 [10] | Compound | Ratio CC50/IC50 [1] | Ratio CC50/IC50 [2] | Ratio CC50/IC50 [3] | Ratio CC50/IC50 [4] | CC50 at 168 h [6] |
| --- | --- | --- | --- | --- | --- | --- | --- | --- | --- | --- |
|  | 50.8 µM | 6.96 µM | 2160 nM | 440 nM | COc1nc2ccc(Br)cc2cc1C(c1ccccc1)n1cnc([N+](=O)[O-])c1 (stereo not given) | 1.25 | 145.45 | 29.62 | 9.19 | 64 µM |
| 6.01 | 20.3 µM | 6.87 µM | 7690 nM | 5980 nM | O=C1c2ccccc2-c2c1c(N1CCN(c3ccccn3)CC1)nc1ccc(Br)cc21 | 0.21 | 0.72 | 0.56 | 0.63 | 4.33 µM |
|  | 20.3 µM | 64 µM | 2120 nM | 710 nM | COc1ccc(-c2ccn(CC(O)c3cc(F)ccc3Oc3nc4ccc([N+](=O)[O-])cc4cc3Cc3ccccc3)n2)cc1 (stereo not given) | 3.15 | 31.52 | 31.37 | 33.16 |  |
| 7.91 | 20.3 µM | 1.93 µM | 2040 nM | 2030 nM | CC(c1cc(F)ccc1Oc1nc2ccc(-n3cc(-c4ccccc4)nn3)cc2cc1Cc1ccccc1)n1ccnc1 (stereo not given) | 3.15 |  | 30.18 |  | 64 µM |
|  | 9.51 µM | 7.39 µM | 2400 nM | 1440 nM | CSCCC(NC(=O)OC(C)(C)C)C(=O)O/N=C1\c2ccccc2-c2c1c(N1CCN(c3ccccn3)CC1)nc1ccc(Br)cc21 (stereo not given) | 6.73 | 44.44 | 26.66 | 8.66 | 64 µM |
| 7.69 | 8.11 µM | 3.7 µM | 2180 nM | 1460 nM | CC(O)c1cc(F)ccc1Oc1nc2ccc(NS(=O)(=O)c3cccc(C(F)(F)F)c3)cc2cc1Cc1ccccc1 (stereo not given) |  |  |  |  | 8 µM |
|  | 8.11 µM | 12.3 µM | 7560 nM | 3060 nM | CC(C)(C)OC(=O)N1CCCC(C(=O)O/N=C2\c3ccccc3-c3c2c(C(F)(F)F)nc2ccc(Br)cc32)C1 (stereo not given) | 0.72 | 1.91 | 0.77 | 0.47 | 5.84 µM |
| 6.72 | 8.11 µM | 6.23 µM | 2040 nM | 2070 nM | COc1cccc(NC(=O)Nc2ccc3nc(Oc4ccc(F)cc4C(C)O)c(Cc4ccccc4)cc3c2)c1 (stereo not given) |  | 30.18 |  |  | 64 µM |
|  | 8 µM | 6.01 µM | 2400 nM | 2080 nM | COc1cccc(-c2ccn(CC(O)c3cc(F)ccc3Oc3nc4ccc([N+](=O)[O-])cc4cc3Cc3ccccc3)n2)c1 (stereo not given) |  | 30.8 |  |  | 64 µM |
|  | 6.96 µM | 6.21 µM | 2040 nM | 1650 nM | CC(NC(=O)OC(C)(C)C)C(=O)O/N=C1\c2ccccc2-c2c1c(N1CCN(c3ccccn3)CC1)nc1ccc(Br)cc21 (stereo not given) | 3.86 | 16.3 | 13.19 | 4.33 | 26.9 µM |
| 7.86 | 6.82 µM | 14.7 µM | 2000 nM | 530 nM | COc1cccc(NC(=S)Nc2ccc3nc(Oc4ccc(F)cc4C(C)O)c(Cc4ccccc4)cc3c2)c1 (stereo not given) | 8 |  | 26.66 |  | 64 µM |
|  | 6.01 µM | 2.38 µM | 8170 nM | 5140 nM | CCCC(=O)O/N=C1\c2ccccc2-c2c1c(-n1ccnc1)nc1ccc(Br)cc21 | 1.37 | 1.6 | 1 | 3.45 | 8.23 µM |
|  | 5.66 µM | 7.87 µM | 2160 nM | 1360 nM | CC(C)(C)OC(=O)NC(C(=O)O/N=C1\c2ccccc2-c2c1c(N1CCN(c3ccccn3)CC1)nc1ccc(Br)cc21)C(C)(C)C (stereo not given) | 6.29 | 26.17 | 16.48 | 4.52 | 35.6 µM |
| 7.86 | 5.28 µM | 4.33 µM | 1790 nM | 530 nM | COc1ccccc1NC(=S)Nc1ccc2nc(Oc3ccc(F)cc3C(C)O)c(Cc3ccccc3)cc2c1 (stereo not given) | 5.22 | 32.31 |  |  | 16 µM |
|  | 5.08 µM | 6.82 µM | 6050 nM | 1200 nM | CC(C)(C)OC(=O)NCC(=O)O/N=C1\c2ccccc2-c2c1c(N1CCN(c3ccccn3)CC1)nc1ccc(Br)cc21 | 12.6 | 53.33 | 10.58 | 9.38 | 64 µM |
| 7.5 | 5.08 µM | 5.35 µM | 2310 nM | 1250 nM | COc1nc2ccc(Br)cc2c2c1C(C)(OCC(O)Cn1ccc(-c3cccc(C(F)(F)F)c3)n1)c1ccccc1-2 (stereo not given) | 4.74 | 19.29 | 10.43 | 4.5 | 24.1 µM |
